Results on one sequence are retold here after patent US20240067685A1, “HIDDEN ANTIBIOTICS IN THE HUMAN PROTEOME” (priority 2022, published 2024).

Data set [1] concerns Acinetobacter baumannii ATCC 17878. The format is cell-based. As to conditions: ATCC 17878, 16 h. Here is the method: (§1) Antimicrobial activity of peptides upon pre-incubation in 10% serum. The antimicrobial activity of r(P)ApoBS^Pro and (ri)-r(P)ApoBS^Pro was evaluated against four bacterial strains upon pre-incubation in 10% FBS (fetal bovine serum, Microgem Lab, Cat. 51860, Italy). All the peptides were incubated for 1 h or 16 h in serum at 37° C. (water bath) prior to MIC value determination by standard protocols. ^20 Experiments were carried out in triplicate for each peptide.

Data set [2] has as its system Staphylococcus aureus ATCC 12600. Format: cell-based. As to conditions: ATCC 12600, 16 h. Here is the method: as §1
Data set [3] concerns Klebsiella pneumoniae ATCC 700603. Format: cell-based. To be noted: ATCC 700603, 16 h. Here is the method:
as §1

A further data set relates to E. faecalis ATCC 29212. The procedure:
(§2) Antimicrobial activity. The antimicrobial activity of ApoB-derived encrypted peptides was assessed against a panel of skin pathogens, such as S. epidermidis ATCC 35984, S. aureus ATCC 12600, A. baumannii ATCC 17878, K. pneumoniae ATCC 700603, S. aureus MRSA (WK7-2), E. faecalis ATCC 29212 and P. aeruginosa PAO1 by using the broth microdilution method. ^20 Bacteria were grown to mid-logarithmic phase in MHB at 37° C. […] Following incubation over-night, each sample was diluted, plated on TSA, and incubated at 37° C. for 24 h to count the number of colonies. All experiments were performed in three independent replicates.

Data set [4] relates to P. aeruginosa wild-type PAO1. The procedure:
as §2

Another data set concerns S. aureus MRSA (WKZ-2). Here is the method: as §2
A short description of data set [5]: in vitro. To be noted: 25% fetal bovine serum. The procedure: To determine its proteolytic stability, it was assessed whether (ri)-r(P)ApoBS^Pro was less susceptible to serum proteases compared to its parent peptide r(P)ApoBS^Pro.
Stability assay. The resistance to enzymatic degradation assay was performed according to the method described by Powell et al. ^72 Briefly, peptides at 2 mg mL^−1 were exposed to a solution of 25% fetal bovine serum in water. Aliquots were collected after 0.5, 1, 2, and 4 h and 10 μL of trifluoroacetic acid was added to them while the samples were on ice for 10 min. The enzymatic degradation of peptides was followed by reverse-phase high performance liquid chromatography coupled to mass spectrometry (RP-HPLC/ESI-MS). The percentage of remaining peptide was calculated by integrating the area under the curve related to the peptide at time point zero.
where AUCX is the area under the curve of the peak related to the peptide after t h (t=0.5, 1, 2, and 4 h), and AUC0 is the area under the curve of the peak related to the peptide at the beginning of the experiment. Three independent experimental replicates were performed, as previously described. ^73

Data set [6] is described as follows: in vitro. Format: cell-based. As to conditions: human. Here is the method:
Cytokine-mediated immunogenicity is one potential side effect of peptide therapeutics as it can lead to cytotoxic effects and allergic responses. ^21,45 To determine whether the peptides exerted any toxic effects against eukaryotic cells and to verify their biocompatibility towards skin cell cultures, dose-response and time-course 3-(4, 5-dimethylthiazolyl-2)-2,5-diphenyltetrazolium bromide (MTT) and lactate dehydrogenase (LDH) cytotoxicity assays were performed against both human dermal fibroblasts (HDF) and human epidermoid carcinoma cell (A431) lines. Due to their cationic nature, most AMPs preferentially interact with negatively charged membranes, such as those of bacteria. […] To evaluate whether peptides exert cytostatic or cytotoxic effects through membrane damage, LDH release in culture medium was detected as a biomarker of membrane damage. ^50 Thus, human dermal fibroblasts (HDF) and human epidermoid carcinoma cells (A431) were treated with each peptide at a concentration of 10 and 20 μmol L^−1 for 72 h. No significant LDH release was detected, thus indicating no damage to eukaryotic cell membranes caused by exposure to the peptides (FIG. 7C).
Eukaryotic cell culture and cytotoxicity assays. […] Cell viability was expressed as means of the percentage values compared to control untreated cells. […]

For data set [7], the system named is S. epidermidis ATCC 35984. In words: microbe, parasite or virus in culture. To be noted: ATCC 35984. The procedure: as §2
The subject of data set [8] is K. pneumoniae ATCC 700603. Briefly: microbe, parasite or virus in culture. As to conditions: ATCC 700603. The procedure: as §2
Another data set has as its system A. baumannii ATCC 17878. In words: microbe, parasite or virus in culture. To be noted: ATCC 17878. The procedure:
as §2

For a further data set, the system named is S. aureus ATCC 12600. In words: microbe, parasite or virus in culture. To be noted: ATCC 12600. The procedure:
as §2

No end group written: not given here.

As to “PHVALKPGKLKFIIPSPKRPVKLLSG [r(P)ApoBS^Pro]”, the “MIC upon incubation in serum” value in data set [1], in data set [2] and in data set [3] was more than 80 µM each time. In addition, the MIC in the data set with E. faecalis ATCC 29212 came out at 20 µM; in data set [4], 10 µM; against S. aureus MRSA (WKZ-2), 10 µM; in [7], 10 µM; in data set [8], 5 µM; in the data set with A. baumannii ATCC 17878, 5 µM. In the data set with S. aureus ATCC 12600, this sequence came in with an MIC of 20 µM. Further, the “stability in the presence of serum” value in “in vitro [5]” is reported as “degraded within minutes”. Also, the “exposure time after which peptide degraded” value in “in vitro [5]” (RP-HPLC/ESI-MS) worked out at 30 min. Further, in “in vitro [6]”, the cytotoxicity at 24 h was 30%.
